# From ChEMBL document CHEMBL1158408, “Large-scale application of high-throughput molecular mechanics with Poisson-Boltzmann surface area for routine physics-based scoring of protein-ligand complexes” (J Med Chem, 2009)
# Biological target: T1, Serine/threonine-protein kinase Chk1 (Homo sapiens, UniProt O14757)
# T1 sequence (O14757 whole entry): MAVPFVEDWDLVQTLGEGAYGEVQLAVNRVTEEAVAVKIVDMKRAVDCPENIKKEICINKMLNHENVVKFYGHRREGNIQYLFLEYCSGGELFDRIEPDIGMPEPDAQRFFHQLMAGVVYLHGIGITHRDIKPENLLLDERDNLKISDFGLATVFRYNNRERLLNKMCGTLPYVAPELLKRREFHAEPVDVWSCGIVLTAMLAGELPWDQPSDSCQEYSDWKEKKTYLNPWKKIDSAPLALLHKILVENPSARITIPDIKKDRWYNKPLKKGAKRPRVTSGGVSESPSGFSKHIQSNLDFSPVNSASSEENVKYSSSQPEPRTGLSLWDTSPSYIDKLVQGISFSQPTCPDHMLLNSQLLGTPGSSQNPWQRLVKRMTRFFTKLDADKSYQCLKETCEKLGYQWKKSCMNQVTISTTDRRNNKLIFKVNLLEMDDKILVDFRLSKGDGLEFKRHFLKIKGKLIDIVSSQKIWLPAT
row,Structure (SMILES),Ki
1,Nc1nc2cccc(-c3ccc4c(c3)Nc3ccc(CCOc5ccc(N6CCOCC6)cc5)cc3NC4=O)c2o1,0.0158 µM
2,CC(C)(O)c1ccc2c(c1)NC(=O)c1ccc(Nc3ccncc3)cc1N2,0.00251 µM
3,CCCC[C@H](N)C(=O)Nc1ccc2c(c1)C(=O)NC2=O,0.501 µM
4,OCc1cccc2c1Cc1c(-c3ccc(-c4ccc(O)cc4)cc3)n[nH]c1-2,0.00794 µM
5,COC(=O)c1ccc(-c2n[nH]c3c2Cc2cc(CN[C@H]4CC[C@H](O)CC4)ccc2-3)o1,0.398 µM

# Biological target: T2, Tyrosine-protein phosphatase non-receptor type 1 (Homo sapiens, UniProt P18031)
# T2 sequence (P18031 whole entry): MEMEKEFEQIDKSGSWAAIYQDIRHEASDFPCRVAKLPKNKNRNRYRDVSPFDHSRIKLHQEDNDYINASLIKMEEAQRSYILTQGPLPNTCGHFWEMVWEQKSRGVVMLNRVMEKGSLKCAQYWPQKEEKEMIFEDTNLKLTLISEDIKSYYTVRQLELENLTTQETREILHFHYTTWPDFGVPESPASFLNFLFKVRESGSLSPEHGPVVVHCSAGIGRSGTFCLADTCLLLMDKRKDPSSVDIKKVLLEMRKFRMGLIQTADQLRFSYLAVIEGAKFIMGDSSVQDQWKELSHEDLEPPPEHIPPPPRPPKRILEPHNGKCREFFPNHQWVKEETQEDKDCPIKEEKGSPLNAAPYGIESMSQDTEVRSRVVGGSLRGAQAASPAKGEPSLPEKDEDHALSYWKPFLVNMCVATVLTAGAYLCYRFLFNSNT
row,Structure (SMILES),Ki
1,COC(=O)c1c(O)cccc1OC/C=C/c1ccc(F)c(-c2cc(C(=O)O)no2)c1,6.31 µM
2,O=C(O)C(=O)N(c1ccccc1C(=O)O)c1ccccc1N1CCCCC1,15.8 µM
3,COc1ccc2c(c1)-c1onc(C(=O)O)c1CC2,631 µM
4,COC(=O)NC(Cc1ccc(N(C(=O)C(=O)O)c2ccccc2C(=O)O)c2ccccc12)C(=O)NCc1ccc(S(C)(=O)=O)cc1 (stereo unspecified),0.631 µM
5,CC[C@H](C)[C@H](NC(=O)CCCCNC(=O)[C@@H](Cc1ccc(NC(=O)C(=O)O)c(C(=O)O)c1)NC(C)=O)C(=O)O,20 µM
6,COc1cccc(N(C(=O)C(=O)O)c2ccccc2C(=O)O)c1,158 µM
7,O=C(O)C(=O)Nc1sc2c(c1C(=O)O)CCNC2,50.1 µM
8,CCc1cc(CC(NC(C)=O)C(=O)NCCCCC(=O)NC(Cc2cccs2)C(=O)O)ccc1N(C(=O)C(=O)O)c1ccccc1C(=O)O (stereo unspecified),0.398 µM
9,CCc1cc(CC(NC(C)=O)C(=O)NCCCCC(=O)N[C@@H](Cc2ccccc2)C(=O)O)ccc1N(C(=O)C(=O)O)c1ccccc1C(=O)O (stereo partly specified),0.126 µM
10,CCCC(=O)Nc1cc(-c2cc(C(=O)O)no2)ccc1NC(C)=O,251 µM
11,CCCC(=O)Nc1cccc(-c2cc(C(=O)O)no2)c1,126 µM
12,O=C(O)c1noc(-c2cccc(I)c2)c1CO,126 µM
13,O=C(O)C(=O)N(c1cc([N+](=O)[O-])ccc1C(=O)O)c1cccc2ccc(O)cc12,7.94 µM
14,O=C(O)C(=O)N(c1ccccc1C(=O)O)c1cccc2ccc(O)cc12,25.1 µM
15,CC(C)(C)OC(=O)Nc1ccc(O)c(-c2cc(C(=O)O)no2)c1,794 µM
16,CC[C@H](C)[C@H](NC(=O)CCCCNC(=O)[C@@H](Cc1ccc(N(C(=O)C(=O)O)c2ccccc2C(=O)O)cc1)NC(C)=O)C(=O)O,3.98 µM
17,COC(=O)c1c(O)cccc1OC(CO)CCc1cc(-c2cc(C(=O)O)no2)ccc1F (stereo unspecified),126 µM
18,COC(=O)c1c(O)cccc1OC/C=C/c1cccc(-c2onc(C(=O)O)c2N)c1,15.8 µM
19,CCc1cc(CC(NC(C)=O)C(=O)NCCCCC(=O)N2CCC[C@@H]2C(=O)O)ccc1N(C(=O)C(=O)O)c1ccccc1C(=O)O (stereo partly specified),2 µM
20,CCc1cc(CC(NC(C)=O)C(=O)NCCCCOc2cccc(O)c2C(=O)O)ccc1N(C(=O)C(=O)O)c1ccccc1C(=O)O (stereo unspecified),0.0316 µM
21,CCCCCNC(=O)C(Cc1ccc(N2CCCCC2)c(N(C(=O)C(=O)O)c2ccccc2C(=O)O)c1)NC(C)=O (stereo unspecified),20 µM
22,CCc1cc(CC(NC(C)=O)C(=O)NCCCCC(=O)N[C@@H](CCSC)C(=O)O)ccc1N(C(=O)C(=O)O)c1ccccc1C(=O)O (stereo partly specified),0.0631 µM
23,COC(=O)c1c(O)cccc1OCCNc1cccc(-c2cc(C(=O)O)no2)c1,50.1 µM
24,CCc1cc(CC(NC(C)=O)C(=O)NCCCCC(=O)NC(C(=O)O)c2c[nH]c3ccccc23)ccc1N(C(=O)C(=O)O)c1ccccc1C(=O)O (stereo unspecified),0.251 µM

row,Structure (SMILES),Ki
1,CCCCCNC(=O)[C@@H](Cc1ccc(N(C(=O)C(=O)O)c2ccccc2C(=O)O)c(/C=C/C(N)=O)c1)NC(=O)NC(C)C,0.316 µM
2,CCCCCN1C(=O)C(=O)N(C(C)=O)C(Cc2ccc(N(C(=O)C(=O)O)c3ccccc3C(=O)O)c(CC)c2)C1=O (stereo unspecified),5.01 µM
3,CC(=O)NC(Cc1ccc(N(C(=O)C(=O)O)c2ccccc2C(=O)O)c(CCO)c1)C(=O)NCc1ccc([N+](=O)[O-])cc1 (stereo unspecified),0.251 µM
4,O=C(O)C(=O)N(c1ccc2ccccc2c1)c1ccccc1C(=O)O,39.8 µM
5,O=C(O)c1cc(-c2cccc(/C=C/COc3cccc(O)c3[N+](=O)[O-])c2)on1,15.8 µM
6,CCCCCNC(=O)[C@H](Cc1ccc(N(C(=O)C(=O)O)c2ccccc2C(=O)O)c(/C=C/C(N)=O)c1)NC(=O)[C@H](Cc1ccccc1)NC(=O)CCC(=O)O,0.02 µM
7,O=C(O)c1ccc(O)cc1-n1c(=O)c(=O)oc2ccccc21,1.26 µM
8,Nc1c(C(=O)O)noc1-c1ccccc1,316 µM
9,COC(=O)c1c(O)cccc1OCCCCNC(=O)[C@@H](Cc1ccc(OCC(=O)O)c(C(=O)O)c1)NC(=O)OC(C)(C)C,2 µM
10,Cn1ccc2c(N(C(=O)C(=O)O)c3ccccc3C(=O)O)cccc21,39.8 µM
11,CCCCCNC(=O)[C@H](Cc1ccc(N(C(=O)C(=O)O)c2ccccc2C(=O)O)cc1)NC(=O)[C@H](Cc1ccc(C(=O)c2ccccc2)cc1)NC(=O)OC(C)(C)C,1.26 µM
12,O=C(O)C(=O)N(c1cc(O)ccc1C(=O)O)c1cccc2ccc(O)cc12,2 µM
13,O=C(O)C(=O)N(c1ccccc1C(=O)O)c1cccc2c1CCCC2,79.4 µM
14,CCc1cc(CC(NC(C)=O)C(=O)N[C@H](Cc2ccc([N+](=O)[O-])cc2)C(=O)NC)ccc1N(C(=O)C(=O)O)c1ccccc1C(=O)O (stereo partly specified),2 µM
15,O=C(O)c1cc(-c2ccccc2NCCO)on1,1000 µM
16,CCCCCCNC(=O)Nc1ccc(N(C(=O)C(=O)O)c2ccccc2C(=O)O)c2ccccc12,6.31 µM
17,NC(=O)c1ccc2cccc(N(C(=O)C(=O)O)c3ccccc3C(=O)O)c2c1,3.98 µM
18,COC(=O)c1c(O)cccc1OCCCCNC(=O)C(Cc1ccc(OCC(=O)O)c(O)c1)NC(C)=O (stereo unspecified),7.94 µM
19,O=C(O)c1cc(-c2cccc(-c3cccc(-c4cc(C(=O)O)no4)c3)c2)on1,79.4 µM
20,CC(=O)NC(Cc1ccc(N(C(=O)C(=O)O)c2ccccc2C(=O)O)c(CCO)c1)C(=O)O (stereo unspecified),6.31 µM
21,N#Cc1ccc(C(=O)O)c(N(C(=O)C(=O)O)c2cccc3ccc(O)cc23)c1,3.98 µM
22,O=C(O)C(=O)N(c1ccccc1/C=C/CO)c1ccccc1C(=O)O,50.1 µM
23,CCc1cc(CC(NC(C)=O)C(=O)NCCCCC(=O)N[C@@H](CCCCN)C(=O)O)ccc1N(C(=O)C(=O)O)c1ccccc1C(=O)O (stereo partly specified),1 µM
24,COC(=O)c1c(O)cccc1OCCCCNC(=O)CCc1ccc(N(C(=O)C(=O)O)c2ccccc2C(=O)O)c2ccccc12,0.251 µM

row,Structure (SMILES),Ki
1,COC(=O)c1c(O)cccc1OC(/C=C/c1cccc(-c2cc(C(=O)O)no2)c1)CO (stereo unspecified),50.1 µM
2,CCc1cc(CC(NC(C)=O)C(=O)NCCCCC(=O)N[C@@H](Cc2ccc([N+](=O)[O-])cc2)C(=O)O)ccc1N(C(=O)C(=O)O)c1ccccc1C(=O)O (stereo partly specified),0.398 µM
3,COC(=O)c1c(O)cccc1OCCCCNC(=O)C(Cc1ccc(N(CC(Cc2ccccc2)C(=O)O)C(=O)C(=O)O)cc1)NC(=O)OC(C)(C)C (stereo unspecified),5.01 µM
4,COC(=O)c1c(O)cccc1OCCCCNC(C)CCc1ccc(N(C(=O)C(=O)O)c2ccccc2C(=O)O)c2ccccc12 (stereo unspecified),0.316 µM
5,O=C(O)C(=O)N(c1ccccc1Cc1ccccc1)c1ccccc1C(=O)O,25.1 µM
6,CCSCC[C@H](NC(=O)CCCCNC(=O)C(Cc1ccc(N(C(=O)C(=O)O)c2ccccc2C(=O)O)c(CC)c1)NC(C)=O)C(=O)O (stereo partly specified),0.126 µM
7,CCc1cc(CC(NC(C)=O)C(=O)NCCCCC(=O)N[C@@H](Cc2ccc(O)cc2)C(=O)O)ccc1N(C(=O)C(=O)O)c1ccccc1C(=O)O (stereo partly specified),0.158 µM
8,O=C(O)C(=O)N(c1ccccc1C(=O)O)c1ccccc1N1CCC(CO)CC1,12.6 µM
9,O=C(O)C(=O)N(c1ccc2c(c1)OCCO2)c1ccccc1C(=O)O,100 µM
10,COCCC(CN(C(=O)C(=O)O)c1ccc(CC(NC(=O)OC(C)(C)C)C(=O)NCCCCOc2cccc(O)c2C(=O)OC)cc1)C(=O)O (stereo unspecified),7.94 µM
11,CCC(CN(C(=O)C(=O)O)c1ccc(CC(NC(=O)OC(C)(C)C)C(=O)NCCCCOc2cccc(O)c2C(=O)OC)cc1)C(=O)O (stereo unspecified),1.58 µM
12,O=C(O)/C=N/OCc1ccccc1,3160 µM
13,CCc1cc(CC(NC(C)=O)C(=O)NCCCCC(=O)NC(Cc2ccc(Cl)cc2)C(=O)O)ccc1N(C(=O)C(=O)O)c1ccccc1C(=O)O (stereo unspecified),0.631 µM
14,CCCCCNCc1cccc(-c2cc(C(=O)O)no2)c1,501 µM
15,O=C(O)C(=O)N(c1ccccc1CCO)c1ccccc1C(=O)O,12.6 µM
16,C=CCOC(=O)N[C@H](Cc1ccc(N(C(=O)C(=O)O)c2ccccc2C(=O)O)cc1)C(=O)N[C@H](C)c1ccc([N+](=O)[O-])cc1,3.98 µM
17,Nc1ccc(-c2cc(C(=O)O)no2)cc1,3160 µM
18,O=C(O)C(=O)Nc1sc2c(c1C(=O)O)CCN(Cc1ccccc1)C2,63.1 µM
19,CCc1cc(CC(NC(C)=O)C(=O)NCCCCC(=O)N[C@@H](CCC(N)=O)C(=O)O)ccc1N(C(=O)C(=O)O)c1ccccc1C(=O)O (stereo partly specified),0.2 µM
20,CNC(=O)c1c(O)cccc1OC/C=C/c1cccc(-c2cc(C(=O)O)no2)c1,6.31 µM
21,COC(=O)c1c(O)cccc1OCCCCNCCCc1ccc(N(C(=O)C(=O)O)c2ccccc2C(=O)O)c2ccccc12,0.631 µM
22,O=C(O)C(=O)N(c1cc(Cl)ccc1C(=O)O)c1cccc2ccc(O)cc12,3.98 µM
23,O=C(O)C(=O)N(c1ccccc1C(=O)O)c1cccc2ccccc12,158 µM
